Columns and labels:
[1] = system: rat isolated aortic rings; test: Vasodilatory capacity in noradrenaline pre-constricted aortic rings and mechanism of action (Protocol 2a/2b); conditions: for vasodilatory response: effect of high KCl levels: KCl 40 mM; for vasodilatory response: effect of nitro-L-arginine (NOLA): NOLA 10 μM; for vasodilatory response: effect of ODQ: ODQ 10 μM; for vasodilatory response: effect of removal of the endothelium: denuded vs intact endothelium; for vasodilatory response: effect of indomethacin: indomethacin 10 μM
Protocol: Male Sprague-Dawley rats (250±50 g) were gassed with 80% CO2 and 20% O2 until killed. The thoracic aorta was excised and quickly placed in ice-cold Krebs modified solution composed of NaCl […], […] 4.7 mM, MgSO4 7H2O 1.17 mM, NaHCO3 25 mM, KH2PO4 1.18 mM, CaCl2 2.5 mM, glucose 11 mM and EDTA 0.03 mM. It was then trimmed of fat and connective tissue and cut into 2-3 mm wide rings. Each ring was mounted on two parallel stainless steel hooks in a single water-jacketed 3 ml organ bath containing modified Krebs solution maintained at 37° C. and bubbled with 95% O2 plus 5% CO2. The lower hook was attached to a movable support leg and the upper hook to an FTO3 force transducer (Grass Scientific Instruments, Mitutoyo, Japan) for isometric recordings. Changes in force were amplified (Quadbridge amplifier, Scientific Concepts Inc., Victoria, Australia) and recorded on a MacLab 8E data acquisition system (Adinstruments Pty Ltd., NSW, Australia) linked to an Apple computer (Apple Computer Inc, Cupertina, Calif.). Rings were set at an initial tension of 2 g and allowed to equilibrate for 30 minutes after which time they were re-set to 2 g tension before the commencement of each experimental protocol.
A full concentration response to noradrenaline was obtained. From this the concentration producing a submaximal contraction of approximately 80% was selected (0.03-0.3 μM). The ring was then constricted with this submaximal concentration and allowed to plateau before full concentration-relaxation curves were obtained to β-estradiol and Cpds. 5, 7, 8 and 12 and the vehicle DMSO (at equi-volume). Only one compound was studied with any one ring from any one animal.
Full relaxation curves were obtained to Cpds. 5, 7, 8 and 12 and β-estradiol in the absence and presence of the endothelium (rings were denuded of endothelium by gentle rotation of the lumen against a rough surface), the nitric oxide synthase inhibitor nitro-L-arginine (NOLA 10 μM; with the exception of Cpd. 8, due to limited supply of the compound), KCl 40 mM (to inhibit endothelium derived hyperpolarising factor), the cyclo-oxygenase inhibitor indomethacin (10 μM) and the soluble guanylate cyclase inhibitor 1H-[1,2,4]oxadiazolo[4,3-a]quinoxalin-1-one (ODQ; 10 μM). Only one compound with only one intervention was tested on any one ring from any one animal.
Contractile responses are expressed in g tension (mean+standard error of the mean). Dilatory responses are expressed as a percentage of the contractile force generated by the pre-constricting agent used. Individual concentration-response curves for noradrenaline and acetylcholine±the interventions used were fitted to a logistic equation of the form […] where E is the response, M is the maximum response and K is the concentration eliciting 50% of the maximum response (ie neg log EC50).

[2] = system: human LDL; test: Prevention of tocopherol-mediated peroxidation (anti-TMP test); assay type: biochemical; conditions: 10 mM
Protocol: The test indirectly assesses the ability of a compound to synergise with a-tocopherol in human LDL undergoing mild and chemically controlled oxidation. Oxidation is measured by the accumulation of cholesterol ester hydroperoxides at a time point corresponding to 20% consumption of endogenous a-tocopherol.
Briefly, ascorbate and ubiquinol-10-free LDL (1 mM in apoB) was supplemented with an aliquot of a stock solution of the compound to be tested. The mixture was incubated at 37° C. for 10 min and subsequently oxidized at 37° C. with a low flux of water-soluble ROO generated from AAPH (4 mM). The time-dependent consumption of LDL a-tocopherol and accumulation of cholesteryllinolate hydroperoxide (Ch18:2-OOH) were monitored by HPLC with electrochemical and post-column chemiluminescence detection, respectively. The effectiveness of an antioxidant, assigned as its anti-TMP index (redox index), was defined as the relative amounts of Ch18:2-OOH formed with versus without the added antioxidant measured after 20% consumption of the endogenous a-tocopherol in the control sample (ie. in the absence in the antioxidant). […] Butylated hydroxytoluene (BHT, 10 mM) was used as a positive control.

[3] = Peroxyl radical scavenging, AAPH-induced oxidation of linoleate; assay type: biochemical; set-up: dose or concentration left out as unconfirmed
Protocol: Peroxyl radicals are natural side-products of a number of enzymes, including lipoxygenases and cyclo-oxygenase. Peroxyl radicals were generated by the thermo-labile azo-initiator AAPH. AAPH-induced oxidation of linoleate was performed as described previously (Pryor et al., 1993), except that a lower linoleate concentration was used and SDS was omitted. An aliquot of a linoleate stock solution was added to PBS at 37° C. to give a final concentration of […]. Oxidation was initiated by the addition of AAPH (87.5 mM final concentration) in the absence and presence of either 10 mM of Cpd. 7, Cpd. 8 or Cpd. 12 or 500 mM ascorbate (positive control). Formation of linoleate hydroperoxide was monitored by UV 234 nm using a Perkin Elmer's UV/Vis Lambda 40 spectrophotometer. The test was performed twice as single analysis. An appropriate concentration of alcohol (ethanol and isopropanol; 0.13%-0.2% v/v) was included in the respective control samples.

Structure (SMILES)	vasodilatory response: effect of high KCl levels [1]	vasodilatory response: effect of nitro-L-arginine (NOLA) [1]	vasodilatory response: effect of ODQ [1]	vasodilatory response: effect of removal of the endothelium [1]	vasodilatory response: effect of indomethacin [1]	LDL protective action in the presence of Vitamin E (in words) [2]	inhibition of AAPH-induced oxidation of linoleic acid, 234 nm absorbency (in words) [3]
O=C1c2ccc(O)cc2OCC1c1ccc(O)cc1 (stereo not shown) [Cpd. 5]	inhibited	inhibited	inhibited	inhibited	did not influence	–	–
Oc1ccc(C2COc3cc(O)ccc3C2O)cc1 (stereo not shown) [Cpd. 7]	inhibited	trend towards inhibition of these responses by NOLA but this was not statistically significant	inhibited	inhibited	did not influence	low levels of activity	As for peroxyl radicals, neither Cpd. 7 nor Cpd. 8 were able to inhibit
Oc1ccc(C2=Cc3ccc(O)cc3OC2)cc1 [Cpd. 12]	inhibited	–	–	inhibited	–	strong LDL protective action (low redox index)	significantly inhibited the time-dependent increase in 234 nm absorbency
Oc1ccc(C2COc3cc(O)ccc3C2O)cc1 (stereo not shown) [Cpd. 8]	inhibited	–	but not by ODQ	inhibited	potentiated	low levels of activity	As for peroxyl radicals, neither Cpd. 7 nor Cpd. 8 were able to inhibit

From US20050119301A1, “Treatment of restenosis” (priority 2001, published 2005)
